# Results as given in patent US8569229B2, “Compositions and methods which modulate G-protein signaling for the treatment of inflammatory disorders such as asthma and allergic conjunctivitis” (The Children's Hospital of Philadelphia, priority 2008, dated 2013).
# “Also recorded” adds a separate entry of the source. Ends that are not written are not given here.
# What was measured:
# OVA-sensitized rabbits [1] = test: In vivo bronchoconstrictor responses to methacholine (Rrs) in OVA-sensitized, OVA-challenged rabbits; parameters: species or system rabbit; conditions: 1 mg/Kg by nebulizer 2 hr prior to OVA challenge, measured 24 hr after challenge
# Description: (§1) Both the OVA sensitized and control animals were then challenged with either vehicle (saline) or aerosolized OVA delivered via a nebulizer. The following day, while mechanically ventilated under general anesthesia/paralysis, the rabbits' broncho-constrictor responses to intravenous (i.v.) bolus injections of cumulatively increasing doses of methacholine (MCh) were determined and induced changes in respiratory system resistance (Rrs), measured as previously described (Grunstein et al. J. Appl. Physiol: […]. Environ. Exercise Physiol. 57:1238-1246, 1984). Lung lavage was then performed to obtain bronchoalveolar lavage fluid (BALF) samples, and the lungs were excised for histological examination in H&E-stained paraffin-embedded 4 micron sections.
# rabbit ASM tissues [2] = test: Relaxation responsiveness to isoproterenol in isolated rabbit ASM tissues half-maximally contracted with ACh; conditions: for effect of pretreatment on PGE2-induced impaired relaxation to isoproterenol: PGE2 100 nM x 24 hr; for relaxation responses to isoproterenol in control serum-exposed tissues pretreated with the agent: control (non-asthmatic) serum, 24 hr; for effect of pretreatment on salmeterol-induced impaired relaxation to isoproterenol: salmeterol 10 μM x 24 hr
# Source text: (§2) Detection of PDE4D5 mRNA transcripts: Total RNA was extracted from the cultured ASM cells using the TRIzol method (Invitrogen), and cDNAs were isolated by RT-PCR using the SuperScript First Strand Synthesis System kit from Invitrogen, with the following oligonucleotide primer sets (Integrated DNA Technologies): for PDE4D5, 5′-[…]-3′ (forward; SEQ ID NO: 2) and 5′-[…]-3′ (reverse; SEQ ID NO: 3); and for β-actin, 5′-[…]-3′ (forward; SEQ ID NO: 4) and 5′-[…]-3′ (reverse; SEQ ID NO: 5). The reaction volume was 20 μl and cycling conditions used were 35 cycles of 30 sec denaturation at 95° C., followed by 30 sec annealing at 60° C. and elongation at 72° C. for 30 sec. Ex-Tag (Takara Biotechnology) was used as DNA polymerase. […] Following protein extraction and the addition of gel-loading buffer, the extracts were loaded on a 10% SDS-PAGE gel for immunoblotting after transfer to a PVDF membrane. The membranes were then incubated overnight with monoclonal mouse anti-human primary antibodies directed against phospho-CREB and -ATF1, phospho-ERK1/2, or α-actin, and levels were detected by ECL after a 1-hr incubation with a 1:2,000 dilution of HRP-conjugated rabbit anti-mouse secondary antibody, followed by exposure to autoradiography film. The protein band intensities were quantified by densitometry. siRNA-mediated knockdown of PKA: ASM cells were seeded into 6-well plates and, at ˜40% confluency, the medium was replaced with the reduced serum-containing medium, Opti-MEM (Invitrogen). The cells were then transfected twice during a 24-hr interval with two pools of three siRNA duplexes, each pool targeted against the human PKAα or PKAγ catalytic subunits (Santa Cruz Biotechnology; sc-36240 and sc-36236, respectively), or with a non-targeted control (scrambled) siRNA duplex, using Oligofectamine (Invitrogen) as the transfection agent. The pools of siRNAs were applied to each well at a final concentration of 100 nM for each siRNA preparation. […] Transfection of ASM cells with adeno-βARK-ct: Adenovirus (adeno)-βARK-ct, an adenovirus vector encoding the βARK1 carboxyl-terminal domain which blocks Gβγ signaling (25,26), and adeno-β-gal, an adenovirus vector expressing lacZ as a negative control, were constructed using the AdenoX adenovirus construction kit (BD-Clontech). Recombinant plaques were isolated and propagated in HEK293 cells (Invitrogen), with viral purification using the cesium chloride gradient method, and viral titer detected by plaque assay. The ASM cells were transfected with either of the adenoviral vectors at a multiplicity of infection (MOI) of 100, and experiments were conducted at 24 hr following adenoviral tranfections. Pharmacodynamic studies of constrictor and relaxation responsiveness in rabbit ASM tissues: Following initial sedation and subsequent general anesthesia with intramuscular injections of xylazine (10 mg/kg) and ketamine (50 mg/kg), respectively, rabbits were sacrificed with an intravenously administered overdose of sodium pentobarbital (100 mg/kg). As described previously (16), the tracheae were excised via open thoracotomy, the loose connective tissue and epithelium were scraped and removed, and the tracheae were divided into 8 ring segments, each of 6-8 mm in length. […] After these incubations, the tissues were placed in organ baths containing modified Krebs-Ringer solution aerated with 5% CO2 in oxygen (pH of 7.35-7.40), and attached to force transducers to continuously monitor isometric tension. […] The constrictor and relaxation dose-response curves were analyzed with respect to each tissue's maximal isometric contractile force (Tmax) to ACh and maximal relaxation response (Rmax) to isoproterenol from the initial level of active cholinergic contraction. Statistical analyses: Results are expressed as mean±SE values. Comparisons between groups were made using the Student's t-test (two-tailed) or ANOVA with Tukey's post-test analysis, where appropriate.
# rabbit ASM tissues [3] = test: Constrictor responsiveness to acetylcholine (ACh) in isolated rabbit ASM tissues, isometric tension in organ bath; conditions: for effect of pretreatment on PGE2-induced increase in constrictor responsiveness to ACh: PGE2 100 nM x 24 hr; for effect of pretreatment on salmeterol-induced increase in constrictor responsiveness to ACh: salmeterol 10 μM x 24 hr
# Source text: as §2
# OVA-sensitized rabbits [4] = test: IL-13 and IFN-γ in BALF samples of OVA-sensitized, OVA-challenged rabbits; assay type: in vivo, rabbit; conditions: pretreated OVA-sensitized+OVA challenged rabbits
# Description: In vivo studies were conducted wherein adult NZW rabbits were initially sensitized with weekly intra-peritoneal (i.p.) injections of 2.5 mg OVA and 10 mg of alum adjuvant for 4-5 weeks, and non-sensitized (control) rabbits received alum alone. Both the OVA sensitized and control animals were then challenged with either vehicle (saline) or aerosolized OVA delivered via a nebulizer. The following day, while mechanically ventilated under general anesthesia/paralysis, the rabbits' broncho-constrictor responses to intravenous (i.v.) bolus injections of cumulatively increasing doses of methacholine (MCh) were determined and induced changes in respiratory system resistance (Rrs), measured as previously described (Grunstein et al. J. Appl. Physiol: Respirat. Environ. Exercise Physiol. 57:1238-1246, 1984). Lung lavage was then performed to obtain bronchoalveolar lavage fluid (BALF) samples, and the lungs were excised for histological examination in H&E-stained paraffin-embedded 4 micron sections.
# human ASM cells = test: Assay of cAMP PDE activity in ASM cell lysates; assay type: cell-based; conditions: for effect of pretreatment on PGE2-induced increase in PDE activity: PGE2 100 nM x 24 hr, peptides 30 μM (Example III)
# OVA-sensitized rabbits [5] = test: Lung histopathology in OVA-sensitized, OVA-challenged rabbits; assay type: in vivo, rabbit; conditions: pretreated OVA-sensitized+OVA challenged rabbits
# Description: as §1
# [6] = listed as Gβγ inhibitory peptide
# [7] = listed as anti-Gβγ cell-permeable inhibitory peptide
# [8] = listed as MPS-conjugated anti-Gβγ peptide
# [9] = vehicle-exposed control tissues
substance,measurement,setting,value
MPS-Phosducin-like protein C terminus (AAVALLPAVLLALLAVTDQLGEDFFAVDLEAFLQEFGLLPEKE; also: MPS attached) [anti-Gβγ peptide],effect on airway constrictor hyper-responsiveness (Rrs responses to MCh),OVA-sensitized rabbits [1],largely abrogated
same,effect on airway constrictor hyper-responsiveness (Rrs responses to MCh),OVA-sensitized rabbits [1]; listed as MPS-conjugated anti-G βγ peptide,prevented to a similar degree
same,effect of pretreatment on PGE2-induced impaired relaxation to isoproterenol,rabbit ASM tissues [2]; [6],prevents
same,effect of pretreatment on PGE2-induced impaired relaxation to isoproterenol,rabbit ASM tissues [2]; [7],prevented
same,relaxation responses to isoproterenol in control serum-exposed tissues pretreated with the agent,rabbit ASM tissues [2]; [6],enhances
same,relaxation responses to isoproterenol in control serum-exposed tissues pretreated with the agent,rabbit ASM tissues [2]; listed as Gβγ-inhibitory peptide,somewhat increased
same,effect of pretreatment on salmeterol-induced impaired relaxation to isoproterenol,rabbit ASM tissues [2],prevented
same,effect of pretreatment on salmeterol-induced impaired relaxation to isoproterenol,rabbit ASM tissues [2]; [8],ablated
same,effect of pretreatment on impaired relaxation to isoproterenol in allergic asthmatic (AS) serum-exposed tissues,rabbit ASM tissues [2]; tissues passively sensitized 24 hr with AS rabbit serum,prevented
same,effect of the agent alone on relaxation responses to isoproterenol,rabbit ASM tissues [2]; [9],no significant effect
same,effect of pretreatment on PGE2-induced increase in constrictor responsiveness to ACh,rabbit ASM tissues [3]; [6],prevents
same,effect of pretreatment on PGE2-induced increase in constrictor responsiveness to ACh,rabbit ASM tissues [3]; [7],prevented
same,effect of pretreatment on salmeterol-induced increase in constrictor responsiveness to ACh,rabbit ASM tissues [3],prevented
same,effect of pretreatment on salmeterol-induced increase in constrictor responsiveness to ACh,rabbit ASM tissues [3]; [8],ablated
same,effect of the agent alone on constrictor responses to ACh,rabbit ASM tissues [3]; [9],no significant effect
same,effect on OVA challenge-induced decrease in BALF IFN-γ,OVA-sensitized rabbits [4],prevents
same,effect on OVA challenge-induced increase in BALF IL-13,OVA-sensitized rabbits [4],prevents
same,effect of pretreatment on PGE2-induced increase in PDE activity,human ASM cells; [6],completely ablated
same,effect of pretreatment on PGE2-induced increase in PDE activity,human ASM cells; [7],completely abrogated
same,effect of pretreatment on salmeterol- and isoproterenol-induced increase in PDE activity,human ASM cells; salmeterol or isoproterenol 10 μM x 24 hr,completely abrogated; also recorded: ablated
same,effect on pulmonary inflammatory response (peribronchial and parenchymal inflammatory cell infiltration),OVA-sensitized rabbits [5],markedly suppressed to a similar extent; also recorded: markedly suppresses
